From patent US20230047208A1, “RNA Splicing Modulation” (The General Hospital Corporation, priority 2020, published 2023)

Tested on: wildtype (WT) human fibroblast cell lines
Experiment: Transcriptome-wide splicing by RNA sequencing (RNASeq), exon triplet PSI change;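 as to Effect: six WT fibroblast lines treated seven days versus DMSO vehicle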;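 as to T-PSI: T-PSI is average treated PSI after seven days of treatment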
Assay type: cell-based
Parameters: key to Effect: Exclusion; Inclusion; Unchanged
Source text: FIG. 2A provides a representation of an exon triplet. Exon U is upstream of Exon X, which is upstream of Exon D. R1, R2 and R3 represent RNA sequencing (RNASeq) reads spanning the regions between two adjacent exons. UI1, I1X, XI2 and I2D are four regions flanking the four splice sites of the exon-triplet. Each flanking region consists of 25 exonic base pairs and 75 intronic base pairs.
FIG. 2B provides a volcano plot showing the ψ (PSI: Percent Spliced-In) changes in splicing after treatment with Compound (I). Each dot represents one of the 161,097 expressed exon triplets in human fibroblasts. The x axis represents the ψ changes after treatment and the y axis represents the False Discovery Rate (FDR) (log 10 transformed). […] The horizontal dashed line indicates an FDR of 0.1. The dots on the right side of the right vertical dashed line and above the horizontal dashed line represent the exon-triplets with an increase for Exon X inclusion (Δψ≥0.1 and FDR<0.1) while the dots on left side of the left vertical dashed line and above the horizontal dashed line represent an increase for Exon X exclusion (Δψ≤−0.1 and FDR<0.1). Black dots in-between the two vertical dashed lines represent exon-triplets unchanged from the treatment.
In some aspects, analysis is performed on data derived from the assay to measure the magnitude of splicing to determine the amount of exons spliced into an mRNA transcript that is produced in the presence of Compound (I) relative to the amount in the absence of Compound (I) or presence of a negative control. In a preferred aspect, the method utilized is calculation of change in Percent Spliced In (ΔPSI). […] The ΔPSI value is derived from the formula: […]
The values for “a” and “b” represent the number of reads supporting the probability for potential inclusion or exclusion of an exon in an RNA transcript. The “a” value is derived from the number of reads within an exon triplet covering, in 5′ to 3′ order: the last few bases (>1 nucleotide) of an upstream exon operably linked to the first few bases (>1 nucleotide) of a middle exon. The “b” value is derived from the number of reads within an exon triplet covering, in 5′ to 3′ order: the last few bases (>1 nucleotide) of the middle exon operably linked to the first few bases (>1 nucleotide) of a downstream exon. The number of reads will indicate whether the splice junction of a middle exon has been identified as potentially having a CNN Motif(s) by the CNN Model described herein, wherein the inclusion or exclusion of the middle exon may be modulated in the presence of Compound (I) to produce one or more mature RNA isoforms from the gene transcript. The value for “c” represents the number of reads supporting the exclusion of the middle exon.
The effect on splicing modulation and corresponding splice differences toward exon inclusion or exclusion was determined by counting the RNASeq reads covering two splice junctions of exon triplets (three consecutive exons: Exon U, Exon X, Exon D) and the corresponding intervening introns, then comparing the change in Percent Spliced In (ΔPSI or Δψ) of the middle exon (Exon X) after treatment (as shown in FIG. 2A)^52,53. 934 exon triplets were identified showing differential middle exon inclusion or exclusion in response to Compound (I) treatment. Of these, 254 were exon inclusion events (Δψ≥0.1 and FDR<0.1) and 680 were exon exclusion events (Δψ≤−0.1 and FDR<0.1) (as shown in FIG. 2B). […] The splicing results were evaluated by RT-PCR in independent replicate experiments, confirming all the calculated Δψ values. […]

[1] = NSMCE2 Exon 126168242-126168340

Compound: Clc1nc(NCc2ccncc2)c2cc[nH]c2n1 [Compound (I), 2-chloro-N-(pyridin-4-ylmethyl)-7H-pyrrolo[2,3-d]pyrimidin-4-amine]
- Effect (NIN Exon 51233025-51233114): Unc
- T-PSI (NIN Exon 51233025-51233114): 0.896
- ΔPSI (NIN Exon 51233025-51233114): 0.008
- Effect (NIPA2 Exon 23027801-23027922): Exc
- T-PSI (NIPA2 Exon 23027801-23027922): 0.326
- ΔPSI (NIPA2 Exon 23027801-23027922): −0.185
- Effect (NIPA2 Exon 23033278-23033413): Exc
- T-PSI (NIPA2 Exon 23033278-23033413): 0.608
- ΔPSI (NIPA2 Exon 23033278-23033413): −0.163
- Effect (NLRC5 Exon 57110731-57110814): Exc
- T-PSI (NLRC5 Exon 57110731-57110814): 0.857
- ΔPSI (NLRC5 Exon 57110731-57110814): −0.122
- Effect (NLRX1 Exon 119043065-119043134): Exc
- T-PSI (NLRX1 Exon 119043065-119043134): 0.742
- ΔPSI (NLRX1 Exon 119043065-119043134): −0.143
- Effect (NPEPPS Exon 45654447-45654526): Inc
- T-PSI (NPEPPS Exon 45654447-45654526): 0.172
- ΔPSI (NPEPPS Exon 45654447-45654526): 0.135
- Effect (NPR2 Exon 35802729-35802800): Exc
- T-PSI (NPR2 Exon 35802729-35802800): 0.878
- ΔPSI (NPR2 Exon 35802729-35802800): −0.101
- Effect (NPRL3 Exon 167300-167374): Exc
- T-PSI (NPRL3 Exon 167300-167374): 0.697
- ΔPSI (NPRL3 Exon 167300-167374): −0.155
- Effect (NPRL3 Exon 174936-175072): Unc
- T-PSI (NPRL3 Exon 174936-175072): 0.206
- ΔPSI (NPRL3 Exon 174936-175072): 0.006
- Effect (NPRL3 Exon 180521-180590): Unc
- T-PSI (NPRL3 Exon 180521-180590): 0.858
- ΔPSI (NPRL3 Exon 180521-180590): 0.003
- Effect (NRG1 Exon 32620736-32620877): Inc
- T-PSI (NRG1 Exon 32620736-32620877): 0.510
- ΔPSI (NRG1 Exon 32620736-32620877): 0.182
- Effect (NSFL1C Exon 1436359-1436364): Exc
- T-PSI (NSFL1C Exon 1436359-1436364): 0.345
- ΔPSI (NSFL1C Exon 1436359-1436364): −0.153
- Effect (NSFL1C Exon 1436359-1436515): Exc
- T-PSI (NSFL1C Exon 1436359-1436515): 0.214
- ΔPSI (NSFL1C Exon 1436359-1436515): −0.123
- Effect [1]: Inc
- T-PSI [1]: 0.162
- ΔPSI [1]: 0.133
- Effect (NSUN4 Exon 46812593-46812747): Exc
- T-PSI (NSUN4 Exon 46812593-46812747): 0.817
- ΔPSI (NSUN4 Exon 46812593-46812747): −0.124
- Effect (NT5C2 Exon 104871502-104871562): Exc
- T-PSI (NT5C2 Exon 104871502-104871562): 0.351
- ΔPSI (NT5C2 Exon 104871502-104871562): −0.306
- Effect (NTMT1 Exon 132394929-132395080): Unc
- T-PSI (NTMT1 Exon 132394929-132395080): 0.828
- ΔPSI (NTMT1 Exon 132394929-132395080): −0.009
- Effect (NTPCR Exon 233091303-233091465): Unc
- T-PSI (NTPCR Exon 233091303-233091465): 0.785
- ΔPSI (NTPCR Exon 233091303-233091465): 0.009
- Effect (NUB1 Exon 151046159-151046326): Exc
- T-PSI (NUB1 Exon 151046159-151046326): 0.858
- ΔPSI (NUB1 Exon 151046159-151046326): −0.126
- Effect (NUBP2 Exon 1836758-1836956): Unc
- T-PSI (NUBP2 Exon 1836758-1836956): 0.575
- ΔPSI (NUBP2 Exon 1836758-1836956): 0.006
- Effect (NUMB Exon 73833605-73833689): Unc
- T-PSI (NUMB Exon 73833605-73833689): 0.697
- ΔPSI (NUMB Exon 73833605-73833689): −0.003
- Effect (NUP43 Exon 150059779-150059914): Exc
- T-PSI (NUP43 Exon 150059779-150059914): 0.865
- ΔPSI (NUP43 Exon 150059779-150059914): −0.118
- Effect (NUP62 Exon 50430951-50431105): Inc
- T-PSI (NUP62 Exon 50430951-50431105): 0.787
- ΔPSI (NUP62 Exon 50430951-50431105): 0.124
- Effect (NUP98 Exon 3707294-3707424): Unc
- T-PSI (NUP98 Exon 3707294-3707424): 0.862
- ΔPSI (NUP98 Exon 3707294-3707424): −0.009
- Effect (NUPL2 Exon 23235458-23235534): Exc
- T-PSI (NUPL2 Exon 23235458-23235534): 0.602
- ΔPSI (NUPL2 Exon 23235458-23235534): −0.244
- Effect (NUTF2 Exon 67881181-67881359): Unc
